Reference: the supplement of paper PMC10307832

Tests used:
Assay in all cases: relative viability (nuclei count vs DMSO), 5 days (fraction); higher = more cells survive
Selisistat + Trametinib = compound: C1CC(C2=C(C1)C3=C(N2)C=CC(=C3)Cl)C(=O)N [Selisistat] + CC(=O)Nc1cccc(-n2c(=O)n(C3CC3)c(=O)c3c(Nc4ccc(I)cc4F)n(C)c(=O)c(C)c32)c1 [Trametinib] (partner 0.02 µM)
Outline: (§1)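 Relative viability was taken as the ratio of nuclei in treated wells to nuclei in vehicle wells. Lung cancer cell lines in 1536-well plates received compounds by pin tool one day after seeding, either one drug alone or a fixed anchor-drug dose plus five library-drug doses (not always all listed) in √10 steps. Nuclei were counted on 4× images after 5 days of treatment, and values are medians of duplicate plates.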

Selisistat + Palbociclib = compound: C1CC(C2=C(C1)C3=C(N2)C=CC(=C3)Cl)C(=O)N [Selisistat] + CC(=O)c1c(C)c2cnc(Nc3ccc(N4CCNCC4)cn3)nc2n(C2CCCC2)c1=O [Palbociclib] (partner 0.5 µM)
Outline: as §1

Selisistat + Linsitinib = compound: C1CC(C2=C(C1)C3=C(N2)C=CC(=C3)Cl)C(=O)N [Selisistat] + C[C@]1(O)C[C@@H](c2nc(-c3ccc4ccc(-c5ccccc5)nc4c3)c3c(N)nccn32)C1 [Linsitinib] (partner 1 µM)
Outline: as §1

Selisistat + Navitoclax = compound: C1CC(C2=C(C1)C3=C(N2)C=CC(=C3)Cl)C(=O)N [Selisistat] + CC1(C)CCC(c2ccc(Cl)cc2)=C(CN2CCN(c3ccc(C(=O)NS(=O)(=O)c4ccc(N[C@H](CCN5CCOCC5)CSc5ccccc5)c(S(=O)(=O)C(F)(F)F)c4)cc3)CC2)C1 [Navitoclax] (partner 0.5 µM)
Outline: as §1

Row | Cell Line | relative viability (Selisistat + Trametinib; first compound 0.4 µM) | relative viability (Selisistat + Trametinib; first compound 1.265 µM) | relative viability (Selisistat + Trametinib; first compound 4 µM) | relative viability (Selisistat + Trametinib; first compound 12.65 µM) | relative viability (Selisistat + Trametinib; first compound 40 µM) | relative viability (Selisistat + Palbociclib; first compound 0.4 µM) | relative viability (Selisistat + Palbociclib; first compound 1.265 µM) | relative viability (Selisistat + Palbociclib; first compound 4 µM) | relative viability (Selisistat + Palbociclib; first compound 12.65 µM) | relative viability (Selisistat + Palbociclib; first compound 40 µM) | relative viability (Selisistat + Linsitinib; first compound 0.4 µM) | relative viability (Selisistat + Linsitinib; first compound 1.265 µM) | relative viability (Selisistat + Linsitinib; first compound 4 µM) | relative viability (Selisistat + Linsitinib; first compound 12.65 µM) | relative viability (Selisistat + Linsitinib; first compound 40 µM) | relative viability (Selisistat + Navitoclax; first compound 0.4 µM) | relative viability (Selisistat + Navitoclax; first compound 1.265 µM) | relative viability (Selisistat + Navitoclax; first compound 4 µM) | relative viability (Selisistat + Navitoclax; first compound 12.65 µM) | relative viability (Selisistat + Navitoclax; first compound 40 µM)
1 | NCI-H2228 | 0.666 | 0.362 | 0.564 | 0.537 | 0.372 | 0.797 | 0.726 | 0.802 | 0.795 | 0.801 | 0.857 | 0.566 | 0.562 | 0.656 | 0.598 | 1.15 | 0.894 | 0.759 | 0.939 | 0.747
2 | NCI-H2347 | 0.266 | 0.245 |  | 0.298 | 0.285 | 0.38 | 0.438 |  | 0.409 | 0.447 | 1.05 | 0.999 | 0.733 | 0.973 | 0.979 | 0.846 | 0.847 | 0.588 | 0.792 | 0.853
3 | NCI-H2405 | 0.676 | 0.602 |  | 0.601 | 0.682 | 0.534 | 0.536 |  | 0.578 | 0.502 | 0.975 |  |  | 0.948 | 0.885 | 0.785 |  |  | 0.804 | 0.793
4 | NCI-H3122 | 0.199 | 0.258 |  | 0.3 | 0.213 | 0.223 | 0.191 |  | 0.191 | 0.178 | 1.03 | 0.953 | 0.872 | 1.06 | 0.994 | 1.01 | 1.02 | 0.935 | 1.04 | 0.961
5 | PC-3 [JPC-3] | 0.805 | 0.664 |  | 0.74 | 0.695 | 0.608 | 0.636 |  | 0.571 | 0.529 | 1.01 | 0.968 | 0.954 | 1 | 0.987 | 0.753 | 0.741 | 0.746 | 0.696 | 0.776
6 | PC-14 | 0.723 | 0.655 | 0.823 | 0.825 | 0.671 | 0.513 | 0.498 | 0.528 | 0.53 | 0.489 | 0.951 | 1.05 | 0.963 | 0.946 | 0.951 | 0.963 | 1.04 | 1.03 | 1.04 | 1.07
7 | RERF-LC-KJ | 0.812 | 0.792 | 0.816 | 0.771 | 0.736 | 1.15 | 1.02 | 0.995 | 0.909 | 0.952 | 0.969 | 0.878 | 0.937 | 0.88 | 0.775 | 0.812 | 1.1 | 0.84 | 0.702 | 0.627
8 | SK-LU-1 | 0.598 | 0.503 | 0.546 | 0.51 | 0.444 | 0.394 | 0.361 | 0.367 | 0.43 | 0.411 | 1.18 | 1.28 | 1.35 | 1.1 | 1.04 | 1.08 | 0.897 | 1.05 | 0.837 | 0.893
9 | SK-MES-1 | 0.589 | 0.539 | 0.55 | 0.492 | 0.459 | 0.34 | 0.347 | 0.309 | 0.314 | 0.378 | 1.11 | 1.04 | 0.955 | 1.05 | 1.01 | 1.29 | 1.14 | 1.4 | 1.26 | 1.26
10 | SW 1573 | 0.615 | 0.505 |  | 0.563 | 0.565 | 0.353 | 0.366 |  | 0.371 | 0.388 | 0.859 | 0.823 | 0.747 | 0.904 | 0.84 | 0.997 | 0.781 | 0.93 | 1.15 | 0.934
11 | UMC-11 | 0.575 | 0.653 | 0.596 | 0.742 | 0.717 | 0.348 | 0.34 | 0.299 | 0.319 | 0.349 | 0.962 | 0.935 | 1.06 | 0.948 | 1.03 | 0.296 | 0.294 | 0.276 | 0.316 | 0.332
